Reference: patent publication US12679843B2, “Pyrrolopyrimidine amines as complement inhibitors” (BioCryst Pharmaceuticals, Inc., priority 2020, dated 2026)

target: Factor D (Homo sapiens, UniProt P00746); assay: Factor D esterolytic assay (Z-Lys-SBzl thioester substrate, DTNB, 405 nm); assay type: biochemical; conditions: substrate Z-Lys-SBzl 1.29 mM, 100 mM HEPES, 500 mM NaCl, pH 7.5, 10% DMSO, tested a minimum of three times
Outline: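 Human Factor D hydrolysis of Z-Lys-SBzl (1.29 mM) monitored at 405 nm via DTNB thiol detection for 600 s, 690 nm background subtracted. Buffer 100 mM HEPES, 500 mM NaCl, pH 7.5, 10% DMSO; substrate added immediately or after room-temperature preincubation. IC50 from percent inhibition of rate, at least three tests.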

Sequence of Factor D (P00746 26-253): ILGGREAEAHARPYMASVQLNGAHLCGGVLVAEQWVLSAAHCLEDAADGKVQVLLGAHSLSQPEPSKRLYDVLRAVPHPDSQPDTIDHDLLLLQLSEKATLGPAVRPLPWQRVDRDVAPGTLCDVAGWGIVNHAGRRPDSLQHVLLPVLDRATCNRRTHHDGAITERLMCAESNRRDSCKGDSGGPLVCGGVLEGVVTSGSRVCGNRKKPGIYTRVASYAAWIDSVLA

Row | IC50 [nM] | SMILES
1 | < 100 | Nc1ncnc2c1c1cc(CCC(=O)O)ccc1n2CC(=O)N1[C@@H]2C[C@@H]2C[C@H]1C(=O)Nc1cccc(Br)n1 [Compound 165a, 3-(4-amino-9-(2-((1R,3S,5R)-3-((6-bromopyridin-2-yl)carbamoyl)-2-azabicyclo[3.1.0]hexan-2-yl)-2-oxoethyl)-9H-pyrimido[4,5-b]indol-6-yl)propanoic acid]
2 | < 100 | Nc1ncnc2c1c1cc(O)ccc1n2CC(=O)N1[C@@H]2C[C@@H]2C[C@H]1C(=O)Nc1cccc(Br)n1 [Compound 166a, (1R,3S,5R)-2-(2-(4-amino-6-hydroxy-9H-pyrimido[4,5-b]indol-9-yl)acetyl)-N-(6-bromopyridin-2-yl)-2-azabicyclo[3.1.0]hexane-3-carboxamide]
3 | < 100 | Nc1ncnc2c1c1ccc(O)cc1n2CC(=O)N1[C@@H]2C[C@@H]2C[C@H]1C(=O)Nc1cccc(Br)n1 [Compound 167a, (1R,3S,5R)-2-(2-(4-amino-7-hydroxy-9H-pyrimido[4,5-b]indol-9-yl)acetyl)-N-(6-bromopyridin-2-yl)-2-azabicyclo[3.1.0]hexane-3-carboxamide]
4 | < 100 | CC(=O)Nc1ccc2c(c1)c1c(N)ncnc1n2CC(=O)N1[C@@H]2C[C@@H]2C[C@H]1C(=O)Nc1cccc(Br)n1 [Compound 168g, (1R,3S,5R)-2-(2-(6-acetamido-4-amino-9H-pyrimido[4,5-b]indol-9-yl)acetyl)-N-(6-bromopyridin-2-yl)-2-azabicyclo[3.1.0]hexane-3-carboxamide]
5 | < 100 | Nc1ncnc2c1c1cc(C(=O)NCC3CC3)ccc1n2CC(=O)N1[C@@H]2C[C@@H]2C[C@H]1C(=O)Nc1cccc(Br)n1 [Compound 169f, 4-amino-9-(2-((1R,3S,5R)-3-((6-bromopyridin-2-yl)carbamoyl)-2-azabicyclo[3.1.0]hexan-2-yl)-2-oxoethyl)-N-(cyclopropylmethyl)-9H-pyrimido[4,5-b]indole-6-carboxamide]
6 | < 100 | CC(O)c1ccc2c(c1)c1c(N)ncnc1n2CC(=O)N1[C@@H]2C[C@@H]2C[C@H]1C(=O)Nc1cccc(Br)n1 (stereo partly drawn) [Compound 170c, (1R,3S,5R)-2-(2-(4-amino-6-(1-hydroxyethyl)-9H-pyrimido[4,5-b]indol-9-yl)acetyl)-N-(6-bromopyridin-2-yl)-2-azabicyclo[3.1.0]hexane-3-carboxamide]
7 | < 100 | Nc1ncnc2c1c1cc(C(F)(F)F)ccc1n2CC(=O)N1CCS[C@H]1C(=O)Nc1cccc(Br)n1 [Compound 171b, (S)-3-(2-(4-amino-6-(trifluoromethyl)-9H-pyrimido[4,5-b]indol-9-yl)acetyl)-N-(6-bromopyridin-2-yl)thiazolidine-2-carboxamide]
8 | < 100 | COc1cccc2c1c1c(N)ncnc1n2CC(=O)N1[C@H](C(=O)Nc2cccc(Br)n2)C[C@@]2(C)C[C@@H]12 [Compound 172a, (1R,3S,5R)-2-(2-(4-amino-5-methoxy-9H-pyrimido[4,5-b]indol-9-yl)acetyl)-N-(6-bromopyridin-2-yl)-5-methyl-2-azabicyclo[3.1.0]hexane-3-carboxamide]
9 | < 100 | COc1cccc2c3c(N)ncnc3n(CC(=O)N3[C@H](C(=O)Nc4cccc(Br)n4)C[C@@]4(C)C[C@@H]34)c12 [Compound 173a, (1R,3S,5R)-2-(2-(4-amino-8-methoxy-9H-pyrimido[4,5-b]indol-9-yl)acetyl)-N-(6-bromopyridin-2-yl)-5-methyl-2-azabicyclo[3.1.0]hexane-3-carboxamide]
10 | > 1000 | Nc1ncnc2c1c1cccc(C(F)(F)F)c1n2CC(=O)N1[C@@H]2C[C@@H]2C[C@H]1C(=O)Nc1cccc(Br)n1 [Compound 174g, (1R,3S,5R)-2-(2-(4-amino-8-(trifluoromethyl)-9H-pyrimido[4,5-b]indol-9-yl)acetyl)-N-(6-bromopyridin-2-yl)-2-azabicyclo[3.1.0]hexane-3-carboxamide]
11 | > 1000 | C[C@@]12C[C@@H](C(=O)Nc3cccc(Br)n3)N(C(=O)Cn3c4ncnc(N)c4c4cccc(C(F)(F)F)c43)[C@@H]1C2 [Compound 175a, (1R,3S,5R)-2-(2-(4-amino-8-(trifluoromethyl)-9H-pyrimido[4,5-b]indol-9-yl)acetyl)-N-(6-bromopyridin-2-yl)-5-methyl-2-azabicyclo[3.1.0]hexane-3-carboxamide]
12 | 100 to 1000 | Cc1cccc2c1c1c(N)ncnc1n2CC(=O)N1[C@H](C(=O)Nc2cccc(Br)n2)C[C@@]2(C)C[C@@H]12 [Compound 176a, (1R,3S,5R)-2-(2-(4-amino-5-methyl-9H-pyrimido[4,5-b]indol-9-yl)acetyl)-N-(6-bromopyridin-2-yl)-5-methyl-2-azabicyclo[3.1.0]hexane-3-carboxamide]
13 | 100 to 1000 | N#C[C@H]1C[C@@H](C(=O)Nc2cccc(Br)n2)N(C(=O)Cn2c3ccc(C(F)(F)F)cc3c3c(N)ncnc32)C1 [Compound 177d, (2S,4S)-1-(2-(4-amino-6-(trifluoromethyl)-9H-pyrimido[4,5-b]indol-9-yl)acetyl)-N-(6-bromopyridin-2-yl)-4-cyanopyrrolidine-2-carboxamide]
14 | 100 to 1000 | N#C[C@@H]1C[C@@H](C(=O)Nc2cccc(Br)n2)N(C(=O)Cn2c3ccc(C(F)(F)F)cc3c3c(N)ncnc32)C1 [Compound 178d, (2S,4R)-1-(2-(4-amino-6-(trifluoromethyl)-9H-pyrimido[4,5-b]indol-9-yl)acetyl)-N-(6-bromopyridin-2-yl)-4-cyanopyrrolidine-2-carboxamide]
15 | > 1000 | Nc1ncnc2c1c1cc(C(F)(F)F)ccc1n2CC(=O)N1c2ccccc2C[C@H]1C(=O)Nc1cccc(Br)n1 [Compound 179d, (S)-1-(2-(4-amino-6-(trifluoromethyl)-9H-pyrimido[4,5-b]indol-9-yl)acetyl)-N-(6-bromopyridin-2-yl)indoline-2-carboxamide]
16 | 100 to 1000 | Nc1ncnc2c1c1cc(C(F)(F)F)ccc1n2CC(=O)N1C[C@@H](N)C[C@H]1C(=O)Nc1cccc(Br)n1 [Compound 180e, (2S,4S)-4-amino-1-(2-(4-amino-6-(trifluoromethyl)-9H-pyrimido[4,5-b]indol-9-yl)acetyl)-N-(6-bromopyridin-2-yl)pyrrolidine-2-carboxamide]
17 | < 100 | C[C@@]12C[C@@H](C(=O)Nc3cccc(Br)n3)N(C(=O)Cn3c4ccncc4c4c(N)ncnc43)[C@@H]1C2 [Compound 181a, (1R,3S,5R)-2-(2-(4-amino-9H-pyrido[3′,4′:4,5]pyrrolo[2,3-d]pyrimidin-9-yl)acetyl)-N-(6-bromopyridin-2-yl)-5-methyl-2-azabicyclo[3.1.0]hexane-3-carboxamide]
18 | < 100 | C[C@@]12C[C@@H](C(=O)Nc3cccc(Br)n3)N(C(=O)Cn3c4cnccc4c4c(N)ncnc43)[C@@H]1C2 [Compound 182a, (1R,3S,5R)-2-(2-(4-amino-9H-pyrido[4′,3′:4,5]pyrrolo[2,3-d]pyrimidin-9-yl)acetyl)-N-(6-bromopyridin-2-yl)-5-methyl-2-azabicyclo[3.1.0]hexane-3-carboxamide]
19 | < 100 | C[C@@]12C[C@@H](C(=O)Nc3cccc(Br)n3)N(C(=O)Cn3c4ncccc4c4c(N)ncnc43)[C@@H]1C2 [Compound 183a, (1R,3S,5R)-2-(2-(4-amino-9H-pyrido[3′,2′:4,5]pyrrolo[2,3-d]pyrimidin-9-yl)acetyl)-N-(6-bromopyridin-2-yl)-5-methyl-2-azabicyclo[3.1.0]hexane-3-carboxamide]
